Experimental data: paper PMC6011838, “Transcriptome analysis and anaerobic C4‐dicarboxylate transport in Actinobacillus succinogenes” (MicrobiologyOpen, 2017)

Molecular target: T1, Asuc_1999 (Actinobacillus succinogenes, UniProt A6VQU8)
T1 construct: untagged gene in pBAD30 derivative pMB64, expressed in E. coli IMW529 (deficient in anaerobic fumarate transport); 555 amino acids; cell suspension uptake
Test: […] uptake, filtration assay, E. coli cell suspension
Assay type: cell-based
Settings: anaerobic; phosphate buffer pH 7, 1 mmol/L MgSO4; 37°C; 1 min uptake; 20 mmol/L lactose preincubation; labelled compound

| SMILES | Km [µM] |
| --- | --- |
| O=C(O)/C=C/C(=O)O [fumarate] | 452 |
| O=C(O)CCC(=O)O [succinate] | 364 |
